Results taken from ChEMBL document CHEMBL2163248, “Classification of inhibitors of hepatic organic anion transporting polypeptides (OATPs): influence of protein expression on drug-drug interactions” (J Med Chem, 2012).

Experiments:
[1] = biological target: T1, Solute carrier organic anion transporter family member 2B1 (Homo sapiens, UniProt O94956); test: Inhibition of human liver OATP2B1 expressed in HEK293 Flp-In cells assessed as reduction in [3H]E3S uptake at 20 uM incubated for 5 mins by scintillation counting; settings: hek293, 5 min
T1 sequence (O94956 whole entry): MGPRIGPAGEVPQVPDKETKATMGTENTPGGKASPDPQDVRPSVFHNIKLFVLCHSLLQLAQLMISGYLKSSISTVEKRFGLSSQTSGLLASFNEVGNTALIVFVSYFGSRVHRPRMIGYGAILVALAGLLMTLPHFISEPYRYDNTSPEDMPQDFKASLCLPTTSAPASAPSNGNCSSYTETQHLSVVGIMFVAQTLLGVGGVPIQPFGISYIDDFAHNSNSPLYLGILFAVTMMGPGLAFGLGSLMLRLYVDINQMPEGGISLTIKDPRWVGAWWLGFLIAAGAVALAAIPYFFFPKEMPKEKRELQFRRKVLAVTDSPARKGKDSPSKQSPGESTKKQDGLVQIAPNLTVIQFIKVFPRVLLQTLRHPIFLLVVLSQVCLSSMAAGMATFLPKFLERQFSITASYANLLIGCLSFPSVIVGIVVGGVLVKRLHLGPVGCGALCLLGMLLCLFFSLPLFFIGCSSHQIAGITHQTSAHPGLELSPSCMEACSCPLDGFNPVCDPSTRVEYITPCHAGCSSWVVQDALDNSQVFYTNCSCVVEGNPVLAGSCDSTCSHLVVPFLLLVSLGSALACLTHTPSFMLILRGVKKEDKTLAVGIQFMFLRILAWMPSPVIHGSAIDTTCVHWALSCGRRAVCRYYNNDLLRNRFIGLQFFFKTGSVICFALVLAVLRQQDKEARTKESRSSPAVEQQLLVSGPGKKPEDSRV

[2] = biological target: T2, Solute carrier organic anion transporter family member 1B1 (Homo sapiens, UniProt Q9Y6L6); test: Inhibition of human liver OATP1B1 expressed in HEK293 Flp-In cells assessed as reduction in E17-betaG uptake at 20 uM by scintillation counting; settings: hek293, 20 µM
T2 sequence (Q9Y6L6 whole entry): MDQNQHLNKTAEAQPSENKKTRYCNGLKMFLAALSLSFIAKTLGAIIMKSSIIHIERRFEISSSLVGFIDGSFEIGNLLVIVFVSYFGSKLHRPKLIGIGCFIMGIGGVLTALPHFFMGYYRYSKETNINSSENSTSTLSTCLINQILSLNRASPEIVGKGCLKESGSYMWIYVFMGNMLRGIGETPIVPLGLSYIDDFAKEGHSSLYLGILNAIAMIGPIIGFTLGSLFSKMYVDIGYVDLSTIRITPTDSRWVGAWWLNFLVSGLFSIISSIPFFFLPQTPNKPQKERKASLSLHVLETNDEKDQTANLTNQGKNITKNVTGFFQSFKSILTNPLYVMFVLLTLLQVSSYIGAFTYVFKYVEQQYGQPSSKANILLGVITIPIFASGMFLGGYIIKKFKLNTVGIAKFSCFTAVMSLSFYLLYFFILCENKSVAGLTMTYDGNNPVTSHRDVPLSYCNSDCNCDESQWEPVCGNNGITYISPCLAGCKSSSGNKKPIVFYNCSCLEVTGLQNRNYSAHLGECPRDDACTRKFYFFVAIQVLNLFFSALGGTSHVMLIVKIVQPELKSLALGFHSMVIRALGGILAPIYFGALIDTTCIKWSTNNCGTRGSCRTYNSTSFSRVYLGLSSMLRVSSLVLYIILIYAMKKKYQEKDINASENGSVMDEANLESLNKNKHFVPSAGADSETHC

[3] = biological target: T3, Solute carrier organic anion transporter family member 1B3 (Homo sapiens, UniProt Q9NPD5); test: Inhibition of human liver OATP1B3 expressed in HEK293 Flp-In cells assessed as reduction in [3H]E17-betaG uptake at 20 uM incubated for 5 mins by scintillation counting; settings: hek293, 5 min
T3 sequence (Q9NPD5 whole entry): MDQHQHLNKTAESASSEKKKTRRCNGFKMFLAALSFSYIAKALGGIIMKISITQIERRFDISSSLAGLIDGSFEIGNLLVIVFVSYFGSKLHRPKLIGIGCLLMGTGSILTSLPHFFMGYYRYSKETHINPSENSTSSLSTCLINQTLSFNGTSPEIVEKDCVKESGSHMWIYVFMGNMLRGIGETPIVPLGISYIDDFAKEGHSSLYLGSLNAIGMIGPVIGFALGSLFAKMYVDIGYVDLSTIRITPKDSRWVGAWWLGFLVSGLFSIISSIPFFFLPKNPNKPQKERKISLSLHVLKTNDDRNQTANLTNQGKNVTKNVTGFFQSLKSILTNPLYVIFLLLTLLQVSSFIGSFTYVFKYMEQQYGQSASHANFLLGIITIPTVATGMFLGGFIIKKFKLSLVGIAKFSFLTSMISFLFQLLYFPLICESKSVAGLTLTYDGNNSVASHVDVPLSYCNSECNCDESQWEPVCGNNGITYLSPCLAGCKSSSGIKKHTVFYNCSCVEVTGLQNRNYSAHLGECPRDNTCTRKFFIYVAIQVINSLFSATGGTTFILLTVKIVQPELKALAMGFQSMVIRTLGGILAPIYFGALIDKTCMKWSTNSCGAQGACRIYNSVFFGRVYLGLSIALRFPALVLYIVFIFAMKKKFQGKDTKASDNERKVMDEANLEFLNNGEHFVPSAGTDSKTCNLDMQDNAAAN

Row | Compound | INH [1] | INH [2] | INH [3]
1 | CCOc1cc(CC(=O)N[C@@H](CC(C)C)c2ccccc2N2CCCCC2)ccc1C(=O)O [REPAGLINIDE] | 42.2% | 88.4% | 83.2%
2 | CO[C@H]1/C=C/O[C@@]2(C)Oc3c(C)c(O)c4c(O)c(c(/C=N/N5CCN(C)CC5)c(O)c4c3C2=O)NC(=O)/C(C)=C\C=C\[C@H](C)[C@H](O)[C@@H](C)[C@@H](O)[C@@H](C)[C@H](OC(C)=O)[C@@H]1C [RIFAMPIN] | 21.2% | 88.3% | 101.7%
3 | CO[C@H]1/C=C/O[C@@]2(C)Oc3c(C)c(O)c4c(O)c(cc(O)c4c3C2=O)NC(=O)/C(C)=C\C=C\[C@H](C)[C@H](O)[C@@H](C)[C@@H](O)[C@@H](C)[C@H](OC(C)=O)[C@@H]1C [RIFAMYCIN] | 74.8% | 95.4% | 101.4%
4 | CN(CCOc1ccc(CC2SC(=O)NC2=O)cc1)c1ccccn1 (centres undefined) [ROSIGLITAZONE] | 10% | 79.1% | -32.1%
5 | CC(C)c1nc(N(C)S(C)(=O)=O)nc(-c2ccc(F)cc2)c1/C=C/[C@@H](O)C[C@@H](O)CC(=O)O [ROSUVASTATIN] | 51.2% | 71.4% | 55.4%
6 | CC(C)NCC(O)c1ccc(NS(C)(=O)=O)cc1 (centres undefined) [SOTALOL] | 19% | 46.4% | 6.6%
7 | CC(=O)S[C@@H]1CC2=CC(=O)CC[C@]2(C)[C@H]2CC[C@@]3(C)[C@@H](CC[C@@]34CCC(=O)O4)[C@H]12 [SPIRONOLACTONE] | -82% | 88.3% | -34.2%
8 | O=C(O)c1cc(/N=N/c2ccc(S(=O)(=O)Nc3ccccn3)cc2)ccc1O [SULFASALAZINE] | 92.3% | 92.1% | 72.1%
9 | O=C1OC(c2ccc(O)c(S(=O)(=O)[O-])c2)(c2ccc(O)c(S(=O)(=O)[O-])c2)c2c(Br)c(Br)c(Br)c(Br)c21.[Na+].[Na+] [SULFOBROMOPHTHALEIN SODIUM] | 69.3% | 94.1% | 74.9%
10 | C[C@H](CCC(=O)NCCS(=O)(=O)O)[C@H]1CC[C@H]2[C@@H]3[C@H](O)C[C@@H]4C[C@H](O)CC[C@]4(C)[C@H]3CC[C@]12C [TAUROCHENODEOXYCHOLATE] | 47.2% | 89.5% | 82.4%
11 | C[C@H](CCC(=O)NCCS(=O)(=O)O)[C@H]1CC[C@H]2[C@@H]3CC[C@@H]4C[C@H](O)CC[C@]4(C)[C@H]3CC[C@]12C [TAUROLITHOCHOLIC ACID] | 94.6% | 97.8% | 89.8%
12 | C[C@H](Cn1cnc2c(N)ncnc21)OCP(=O)(O)O [TENOFOVIR ANHYDROUS] | 23.3% | 18.4% | 33.6%
13 | CC(C)(C)c1ccc(C(O)CCCN2CCC(C(O)(c3ccccc3)c3ccccc3)CC2)cc1 (centres undefined) [TERFENADINE] | 3.7% | 42.7% | 33.3%
14 | CN(C)[C@@H]1C(O)=C(C(N)=O)C(=O)[C@@]2(O)C(O)=C3C(=O)c4c(O)cccc4[C@@](C)(O)[C@H]3C[C@@H]12 [TETRACYCLINE] | 51.1% | 22.1% | 29.5%
15 | CC[N+](CC)(CC)CC [TETRYLAMMONIUM] | 6.7% | 25.9% | 4.9%
16 | Cn1c(=O)c2[nH]cnc2n(C)c1=O.O [THEOPHYLLINE] | -25.5% | 0.8% | 2.5%
17 | CSc1ccc2c(c1)N(CCC1CCCCN1C)c1ccccc1S2 (centres undefined) [THIORIDAZINE] | 21.5% | 26.1% | 25.2%

Row | Compound | INH [1] | INH [2] | INH [3]
18 | S=P(N1CC1)(N1CC1)N1CC1 [THIOTEPA] | 16.2% | -40.3% | 0.6%
19 | Clc1ccccc1CN1CCc2sccc2C1 [TICLOPIDINE] | 23% | 19.4% | 0.2%
20 | CCCCNC(=O)NS(=O)(=O)c1ccc(C)cc1 [TOLBUTAMIDE] | 15.5% | 9.1% | 5.8%
21 | CC[C@@]1(O)C(=O)OCc2c1cc1n(c2=O)Cc2cc3c(CN(C)C)c(O)ccc3nc2-1 [TOPOTECAN] | -39.2% | 36.7% | 17.3%
22 | Cc1nnc2n1-c1ccc(Cl)cc1C(c1ccccc1Cl)=NC2 [TRIAZOLAM] | -20.5% | 45.7% | 18.7%
23 | COc1cc(Cc2cnc(N)nc2N)cc(OC)c1OC [TRIMETHOPRIM] | 35.1% | 24.7% | 18.8%
24 | CC(C)C[C@H](NC(=O)[C@@H](O)[C@H](N)Cc1ccccc1)C(=O)O [UBENIMEX] | 20.7% | 10.9% | 31.8%
25 | CC(C)[C@H](N)C(=O)OCCOCn1cnc2c(=O)[nH]c(N)nc21 [VALACYCLOVIR] | -7.3% | 8.3% | 6.6%
26 | C/C=C/C[C@@H](C)C(=O)[C@H]1C(=O)N[C@@H](C(C)C)C(=O)N(C)CC(=O)N(C)[C@@H](CC(C)C)C(=O)N[C@@H](C(C)C)C(=O)N(C)[C@@H](CC(C)C)C(=O)N[C@@H](C)C(=O)N[C@H](C)C(=O)N(C)[C@@H](CC(C)C)C(=O)N(C)[C@@H](CC(C)C)C(=O)N(C)[C@@H](C(C)C)C(=O)N1C [VALSPODAR] | 33.1% | 96.3% | 93.9%
27 | c1cnc2cc3c(cc2n1)[C@@H]1CNC[C@H]3C1 [VARENICLINE] | 27.3% | 24.7% | 0.8%
28 | CC[C@]1(O)C[C@@H]2CN(CCc3c([nH]c4ccccc34)[C@@](C(=O)OC)(c3cc4c(cc3OC)N(C)[C@H]3[C@@](O)(C(=O)OC)[C@H](OC(C)=O)[C@]5(CC)C=CCN6CC[C@]43[C@@H]65)C2)C1 [VINBLASTINE] | -9.3% | 57.6% | 54.3%
29 | CC(=O)CC(c1ccccc1)c1c(O)c2ccccc2oc1=O (centres undefined) [WARFARIN] | 31.6% | 27.8% | -3.2%
30 | Cc1cn([C@H]2C[C@H](N=[N+]=[N-])[C@@H](CO)O2)c(=O)[nH]c1=O [ZIDOVUDINE] | 4.7% | 9.5% | 7.1%
31 | FLUPENTIXOL | 9.5% | 30.2% | 13.5%
32 | IVERMECTIN | 39% | 64.7% | 55.2%
33 | NYSTATIN | 23.4% | 69.3% | 74.9%
